Test results published in publication PMC12799524, “Putative new biomarkers for renal transporter-mediated drug-drug interactions: Characterization as substrates of organic cation transporter 2, multidrug and toxin extrusion protein 1, and other important drug transporters” (Drug Metabolism and Disposition, 2025).

Experiments:
human OATP1B1 = biological target: T1, human OATP1B1 (Homo sapiens, UniProt Q9Y6L6); assay: Uptake assay in HEK-OATP1B1 vs HEK-VC cells; assay type: in vitro ADME
T1 construct: expressed in transfected cells; host or cells: HEK293 (HEK-OATP1B1)
T1 sequence (Q9Y6L6 1-691): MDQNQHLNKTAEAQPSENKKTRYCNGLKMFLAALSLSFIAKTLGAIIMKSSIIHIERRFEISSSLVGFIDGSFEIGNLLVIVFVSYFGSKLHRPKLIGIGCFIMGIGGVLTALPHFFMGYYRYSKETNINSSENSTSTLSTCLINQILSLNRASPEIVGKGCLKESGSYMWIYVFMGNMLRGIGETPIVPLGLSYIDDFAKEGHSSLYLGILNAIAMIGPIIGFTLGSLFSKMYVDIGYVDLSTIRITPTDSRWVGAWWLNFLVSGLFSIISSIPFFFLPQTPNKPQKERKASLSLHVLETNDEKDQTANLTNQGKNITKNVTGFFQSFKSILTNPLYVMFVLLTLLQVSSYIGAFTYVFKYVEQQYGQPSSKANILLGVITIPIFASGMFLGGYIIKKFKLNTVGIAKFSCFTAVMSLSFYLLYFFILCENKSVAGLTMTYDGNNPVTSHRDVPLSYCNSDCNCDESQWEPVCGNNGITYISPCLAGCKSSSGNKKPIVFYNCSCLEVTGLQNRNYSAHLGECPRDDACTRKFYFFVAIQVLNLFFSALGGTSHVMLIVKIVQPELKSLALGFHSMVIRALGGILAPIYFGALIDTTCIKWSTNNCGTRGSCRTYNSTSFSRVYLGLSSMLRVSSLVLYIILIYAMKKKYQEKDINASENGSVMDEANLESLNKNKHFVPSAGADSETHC
Method: Transport experiments were performed 48 hours after seeding.

[1] = cited from earlier work
P-gp = P-gp (Homo sapiens, UniProt P08183); assay: Intracellular accumulation and basal to apical transport in Caco-2 cells with/without valspodar; details: for In Vitro P-gp (substrate class): Caco-2 cells, valspodar
Method: (§1) The intracellular accumulation and transcellular, basal to apical transport experiments were performed as previously described in monolayers of polarized single-transfected (MDCK-OCT2, MDCK-MATE1) and double-transfected (MDCK-OCT2-MATE1) MDCK cells, MDCK control cells (MDCK-VC), or Caco-2 cells.[22] In brief, cell monolayers were grown in cell culture inserts on porous membranes. For MDCK-VC, MDCK-OCT2 and Caco-2, 5 × 10^5 cells were used per well; for MDCK-OCT2-MATE1, 6 × 10^5 cells were used, and for MDCK-MATE1, 8 × 10^5 cells were used per well. Cells were grown to confluence for 72 hours, induced with 10 mM sodium butyrate 48 hours after seeding for 24 hours (MDCK only), and subsequently used for transport experiments.
(§2) In general, after the cell culture medium was removed from both sides of the monolayers, cells were washed at 37 °C with transport buffer of the same composition as described in the previous section. Experiments were started by replacing the medium in the basal compartment with medium containing the putative biomarkers or [^3H]-labeled positive control substrates. The pH of the buffer on the basal side was 7.3 and 6.5 on the apical side for MDCK cells, whereas it was 7.3 on either side for Caco-2 cells. Cells were incubated at 37 °C and the buffer from the apical compartment was taken after 60 minutes for MDCK cells and after 240 minutes for Caco-2 cells. In case of Caco-2 cells, endogenous P-gp was inhibited by adding 2 μM of valspodar to the basal compartment. To measure the cellular accumulation of the test compounds, the remaining medium was removed at the end of the incubation period and the cell monolayers were rapidly rinsed 3 times with ice-cold 0.9% NaCl in water. Filters were detached from the chambers and placed into 500 μL of 80% MeOH containing the aforementioned recovery standards to lyse cells for subsequent LC-MS analysis or into 600 μL of 0.2% SDS (control experiments only). In the control experiments, the radioactivity of the collected apical medium and the solubilized cell monolayers and protein concentrations of the cell lysates were measured in the same way as described for the experiments with HEK cells.
(§3) The intracellular background of all 5 compounds in HEK cells at the beginning of the uptake experiments was investigated 48 hours after seeding without incubation with transport buffer (ie, 0 minutes). […] Then, cells were lysed with ice-cold 80% MeOH containing the aforementioned recovery standards. In addition, the impact of a 5-minute incubation period with transport buffer without added substance was investigated.

human OCT2 = biological target: T2, human OCT2 (Homo sapiens, UniProt O15244); assay: Intracellular accumulation and transcellular transport in MDCK-OCT2 monolayers; assay type: in vitro ADME; parameters: expressed in transfected cells; details: for Intracellular concentration in MDCK-OCT2 cells in comparison to MDCK-VC cells: 10 μM basal, 60 minutes
T2 sequence (O15244 1-555): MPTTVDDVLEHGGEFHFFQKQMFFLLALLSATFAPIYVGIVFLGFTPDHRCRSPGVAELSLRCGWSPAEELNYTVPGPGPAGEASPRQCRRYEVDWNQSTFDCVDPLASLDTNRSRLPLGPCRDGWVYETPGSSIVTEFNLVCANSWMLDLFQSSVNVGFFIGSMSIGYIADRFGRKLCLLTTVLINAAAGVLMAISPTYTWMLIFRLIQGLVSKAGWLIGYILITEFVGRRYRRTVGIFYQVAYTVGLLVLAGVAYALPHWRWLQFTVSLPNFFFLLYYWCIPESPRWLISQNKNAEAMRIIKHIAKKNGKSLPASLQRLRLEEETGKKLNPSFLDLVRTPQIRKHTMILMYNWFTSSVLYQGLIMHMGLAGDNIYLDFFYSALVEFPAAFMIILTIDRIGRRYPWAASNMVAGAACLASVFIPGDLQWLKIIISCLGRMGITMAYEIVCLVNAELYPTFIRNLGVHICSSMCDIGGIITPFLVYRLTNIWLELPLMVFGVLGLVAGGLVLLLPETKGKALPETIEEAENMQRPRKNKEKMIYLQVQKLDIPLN
Method: as §1, §2, §3

[2] = 10 μM substrate, 240 minutes, valspodar 2 μM

Chain of P-gp (P08183 whole entry): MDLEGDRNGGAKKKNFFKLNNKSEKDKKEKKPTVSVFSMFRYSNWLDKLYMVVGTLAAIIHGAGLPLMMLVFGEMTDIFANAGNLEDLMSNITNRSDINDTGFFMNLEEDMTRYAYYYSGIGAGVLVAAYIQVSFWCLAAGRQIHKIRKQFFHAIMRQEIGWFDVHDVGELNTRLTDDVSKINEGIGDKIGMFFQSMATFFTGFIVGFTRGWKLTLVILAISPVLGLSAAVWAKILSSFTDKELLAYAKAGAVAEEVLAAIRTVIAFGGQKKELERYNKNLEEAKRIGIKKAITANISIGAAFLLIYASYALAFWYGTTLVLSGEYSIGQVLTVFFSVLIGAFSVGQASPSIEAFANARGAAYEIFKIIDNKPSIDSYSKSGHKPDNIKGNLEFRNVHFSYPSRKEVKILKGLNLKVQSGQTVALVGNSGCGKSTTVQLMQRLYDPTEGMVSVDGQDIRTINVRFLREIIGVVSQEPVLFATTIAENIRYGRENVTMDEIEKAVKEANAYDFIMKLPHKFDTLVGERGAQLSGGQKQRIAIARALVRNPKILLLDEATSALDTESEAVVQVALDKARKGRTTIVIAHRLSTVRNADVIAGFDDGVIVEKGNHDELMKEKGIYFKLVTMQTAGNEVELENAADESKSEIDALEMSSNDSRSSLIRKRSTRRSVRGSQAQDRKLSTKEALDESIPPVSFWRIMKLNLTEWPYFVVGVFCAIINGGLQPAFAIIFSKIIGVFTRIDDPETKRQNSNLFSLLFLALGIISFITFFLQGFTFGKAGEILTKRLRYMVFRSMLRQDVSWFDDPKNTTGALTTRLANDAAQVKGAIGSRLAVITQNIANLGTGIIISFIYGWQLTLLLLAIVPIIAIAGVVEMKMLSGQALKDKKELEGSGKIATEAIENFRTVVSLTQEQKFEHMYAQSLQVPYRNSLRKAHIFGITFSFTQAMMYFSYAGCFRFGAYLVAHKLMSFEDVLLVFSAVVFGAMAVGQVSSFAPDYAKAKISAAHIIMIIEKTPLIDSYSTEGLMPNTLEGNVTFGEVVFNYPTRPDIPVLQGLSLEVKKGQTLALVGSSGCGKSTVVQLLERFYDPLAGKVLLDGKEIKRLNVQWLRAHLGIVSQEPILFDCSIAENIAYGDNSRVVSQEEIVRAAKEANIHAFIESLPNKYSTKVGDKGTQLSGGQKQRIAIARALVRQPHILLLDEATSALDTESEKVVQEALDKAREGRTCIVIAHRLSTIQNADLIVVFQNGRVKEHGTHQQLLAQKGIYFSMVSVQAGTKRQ

SMILES | In Vitro OATP1B1 (substrate class) (human OATP1B1) | Mean urinary excretion ([1]; healthy individuals) | Effect of valspodar on basal to apical translocation in Caco-2 cells (P-gp; [2]) | Transcellular transport in Caco-2 cells with valspodar, of the respective control (P-gp; 10 μM substrate, 240 minutes, valspodar 2 μM, without valspodar set to 100%) [%] | In Vitro P-gp (substrate class) (P-gp) | Intracellular concentration in MDCK-OCT2 cells in comparison to MDCK-VC cells (human OCT2) | Intracellular background in MDCK-OCT2 cells vs MDCK-VC cells (human OCT2; 60 minutes without added substance) | Urinary excretion ([1]; healthy subjects) [nmol/mL/mg creatinine] | Renal clearance ([1]; healthy volunteers, after oral administration of 400 mg tyramine) [mL/min]
Cn1cnc(CCN)c1 [1-Methylhistamine, 1-methylhistamine] | - | around 120 μg/g creatinine | significantly reduced | 67 | 0 (significant uptake in HEK cells, but less than 300% of respective control cells or significant reduction of transcellular transport in Caco-2 cells, but reduction not below 50% of respective control without valspodar) |  |  |  | 
C[N+](C)(C)CCCCC(=O)[O-] [5-Amino valeric acid betaine, 5-amino valeric acid betaine] | 0 (significant uptake in HEK cells, but less than 300% of respective control cells or significant reduction of transcellular transport in Caco-2 cells, but reduction not below 50% of respective control without valspodar) |  | no significant effect |  | - | significantly increased | much lower |  | 
NCCc1c[nH]c2ccc(O)cc12 [Serotonin, serotonin] | - |  | no significant effect |  | - | significantly increased |  | 0.21 ± 0.08 | 
NCCc1ccc(O)cc1 [Tyramine, tyramine] | 0 (significant uptake in HEK cells, but less than 300% of respective control cells or significant reduction of transcellular transport in Caco-2 cells, but reduction not below 50% of respective control without valspodar) |  | no significant effect |  | - | significantly increased |  |  | 260
